Assay results published in patent publication US20240124389A1, “COMPOUND OR SALT THEREOF, LIPID PARTICLES, AND PHARMACEUTICAL COMPOSITION” (FUJIFILM Corporation, priority 2021, published 2024).

Key:
EPO mRNA = assay: mRNA encapsulation rate of EPO mRNA-encapsulating lipid particles; assay type: physicochemical; conditions: aminolipid 50 / DOPE 10 / cholesterol 38.5 / DMG-PEG2000 1.5 mol %, lipid/nucleic acid 64 wt/wt
In short: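 Lipid particles made by mixing lipids in ethanol (20 mmol/L total) with EPO mRNA in 50 mmol/L citrate pH 4 (lipid:mRNA weight ratio about 16:1–64:1), then dialysed against 10% sucrose. Total mRNA measured after ethanol precipitation; outer-phase mRNA by RiboGreen fluorescence (ex 485/em 535 nm). Encapsulation (%) = (total − outer)/total × 100.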

PTEN mRNA = PTEN mRNA knockdown in vitro (quantification of PTEN mRNA by PCR); assay type: cell-based, human; conditions: SH-SY5Y cells; PTEN ASO lipid particles of Table 3, ASO 500 nmol/L, exposure 24 hours; PTEN mRNA by ΔΔCt method
Source text: An antisense oligonucleotide nucleic acid (PTEN ASO) for a PTEN protein was purchased from Hokkaido System Science Co., Ltd. PTEN ASO is an oligonucleotide consisting of 20 bases, in which nucleotides are connected by a phosphodiester bond, and the sequence of which is described below.
In an in vitro test using SH-SY5Y cells (American Type Culture Collection), E-MEM (gibco), Ham's F12 (gibco), FBS (gibco), Penicillin-streptomycin (gibco), and NEAA (FUJIFILM Wako Pure Chemical Corporation) were mixed at a ratio of 41.5:41.5:15:1:1 and the mixture was used as a culture medium.
The measurement of PTEN protein mRNA was performed according to the protocol of TaqMan (register trademark) Fast Advanced Cells-to-CT™ Kit (Thermo Fisher Scientific). To A431 cells or SH-SY5Y cells, a dispersion liquid of nucleic acid lipid particles prepared to have a final concentration of 500 nmol/L as an ASO concentration, Naked ASO or PBS was added. After exposure for 24 hours under the control of 37° C. and 5% CO2, the culture supernatant was removed, and the mixture was washed once with PBS at 4° C. After removing the PBS, a lysis solution was added at 50 μL/well, and the mixture was stood still for 5 minutes at room temperature to obtain a cell lysate. For the cell lysate, TaqMan (register trademark) Fast Advanced Cells-to-CT™ Kit (Thermo Fisher scientific), and Hs02621230_s1, FAM/MGB (Thermo Fisher Scientific) and Human GAPDH Endogenous Control (VIC (register trademark)/MGB, Thermo Fisher Scientific) as a PCR reaction reagent were used to perform reverse transcription and PCR reaction.
The PTEN mRNA level of each sample was calculated by the ΔΔCt method. Specifically, the Ct value of GAPDH is subtracted from the Ct value of PTEN to calculate the ΔCt value of each sample. The average value of the ΔCt values of the PBS treatment group was subtracted from the calculated ΔCt value to calculate the ΔΔCt value. For each ΔΔCt value, a relative value with respect to the Naked ASO to be compared was taken as a PTEN mRNA relative value.

[1] = Particle size of EPO mRNA-encapsulating lipid particles; assay type: physicochemical; conditions: aminolipid 50 / DOPE 10 / cholesterol 38.5 / DMG-PEG2000 1.5 mol %, lipid/nucleic acid 64 wt/wt
In short: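 Lipid particles made from ethanol lipid phase (20 mmol/L total lipid, with DSPC, DOPE or DOPC, cholesterol, DMG-PEG2000) and EPO mRNA in pH 4 citrate buffer (lipid:mRNA about 16:1 to 64:1 w/w), mixed 3:1 aqueous:oil, then dialyzed against 10% sucrose. Size measured after 10-fold PBS dilution by light-scattering analyzer.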

| SMILES | Nucleic acid encapsulation rate (EPO mRNA) [%] | PTEN knockdown relative value with respect to Naked ASO (PTEN mRNA) | Particle size [1] [nm] |
| --- | --- | --- | --- |
| CCCCCCCOC(=O)CCCC(CCCC(=O)OCCCCCCC)OC(=O)OCCN(CCOC(=O)OC(CCCC(=O)OCCCCCC)CCCC(=O)OCCCCCC)CCN(CC)CC [Example 37, 1-Heptyl 21-hexyl 11-(2-(diethylamino)ethyl)-5-(4-(heptyloxy)-4-oxobutyl)-17-(4-(hexyloxy)-4-oxobutyl)-7,15-d ioxo-6,8,14,16-tetraoxa-11-azahenicosanedioate] | 99.0 | 0.83 | 136.1 |
| CCCCCC(CCCCC)COC(=O)CCCC(CCC)OC(=O)OCCN(CCOC(=O)OC(CCC)CCCC(=O)OCC(CCCCC)CCCCC)CCN(CC)CC (stereo not drawn) [Example 21, Bis(2-pentylheptyl) 11-(2-(diethylamino)ethyl)-7,15-dioxo-5,17-dipropyl-6,8,14,16-tetraoxa-11-azahenicosanedioate] | 99.9 | 0.33 | 109.4 |
| CCCCCCC(CCCC)COC(=O)CCCC(CCCCCC)OC(=O)OCCN(CCOC(=O)OC(CCCCCC)CCCC(=O)OCC(CCCC)CCCCCC)CCN(CC)CC (stereo not drawn) [Example 8, Bis(2-butyloctyl) 11-(2-(diethylamino)ethyl)-5,17-dihexyl-7,15-dioxo-6,8,14,16-tetraoxa-11-azahenicosanedioate] | 98.0 | 0.65 | 81.3 |
| CCCCCCCOC(=O)CCCC(CCCC(=O)OCCCCCCC)OC(=O)OCCN(CCOC(=O)OC(CCCC(=O)OCCCCCCC)CCCC(=O)OCCCCCCC)CCN(CC)CC [Example 29, diheptyl 11-(2-(diethylamino)ethyl)-5,17-bis(4-(heptyloxy)-4-oxobutyl)-7,15-dioxo-6,8,14,16-tetraoxa-11-azahenicosanedioate] | 97.1 | 0.80 | 108.7 |
| CCCCCCC(CCCC(=O)OCC(CCCCC)CCCCC)OC(=O)OCCN(CCCN(CC)CC)CCOC(=O)OC(CCCCCC)CCCC(=O)OCC(CCCCC)CCCCC (stereo not drawn) [Example 13, Bis(2-pentylheptyl) 11-(3-(diethylamino)propyl)-5,17-dihexyl-7,15-dioxo-6,8,14,16-tetraoxa-11-azahenicosanedio ate] | 98.5 | 0.34 | 79.5 |
